We go through 1 molecule from PMC7179259, “Safety, Tolerability, Pharmacokinetics, and Antimalarial Activity of the Novel Plasmodium Phosphatidylinositol 4-Kinase Inhibitor MMV390048 in Healthy Volunteers” (Antimicrobial Agents and Chemotherapy, 2020).

For one data set, the system named is healthy subjects. The data set can be described thus: Formulation optimization study: safety. The format is in vivo, human. The settings on record: both tablet formulations. As for the experimental part:
The third study was a formulation optimization study to test two MMV390048 tablet formulations (tartaric acid and Syloid). The formulation optimization study was conducted at Richmond Pharmacology Ltd. (London, United Kingdom) from 17 September to 28 October 2015. This was a phase 1, open-label, single-dose, parallel-group, two-cohort design study.
(iii) Formulation optimization study. Subjects received one of two tablet formulations (formulation A, tartaric acid tablets; formulation B, Syloid tablets; manufactured by Quotient Clinical, United Kingdom) on day 1, after an ≥8-h fasting period, at a dose of 40 mg with 240 ml of water. Subjects were followed up until day 29.
Safety endpoints were the incidence, severity, and relationship to the investigational product (and inoculum for the IBSM study) of observed and self-reported adverse events (AEs), and changes from baseline in physical examination, vital signs, standard electrocardiograms (ECGs), continuous ECGs (first-in-human study only), and laboratory evaluation (hematology, coagulation parameters, hemolysis panel, clinical chemistry, and urinalysis) findings. […] AE severity was evaluated according to the Common Terminology Criteria for Adverse Events version 4.03 ([18]) and the World Health Organization recommendations for grading acute and subacute toxic effects ([19]).

The subject of another data set is P. falciparum. The arrangement: method as in PMID 28446690. The settings on record: humanized SCID mice infected with P. falciparum; cited from earlier work.
The nature of data set [1]: Induced blood-stage malaria (IBSM) study: plasma pharmacokinetics. Type of data set: in vivo. The settings on record: human; for AUC(0-t): oral, 20 mg. Here is the method:
(§1) (ii) IBSM study. The dose of MMV390048 chosen (20 mg) was based on the pharmacokinetic, safety, and tolerability data available from the first-in-human study at the time the IBSM study commenced (when 5- and 20-mg-dose cohorts of the first-in-human study had been completed). This dose was below the estimated single dose required to achieve complete cure calculated from preclinical studies (80 to 100 mg) since recrudescence allows for characterization of the pharmacokinetic/pharmacodynamic relationship between MMV390048 and P. falciparum parasitemia. Subjects were inoculated intravenously on day 0 with erythrocytes infected with ∼1,800 viable chloroquine-sensitive P. falciparum 3D7 parasites ([17]). Fasted (≥8 h) subjects were dosed with MMV390048 when they reached the parasitemia threshold for treatment (∼1,000 parasites ml^−1) and were followed up until the end-of-study visit on day 28.
Blood samples from the three studies were analyzed at the University of Cape Town Division of Clinical Pharmacology Laboratory. MMV390048 was extracted from plasma using a protein precipitation procedure and analyzed using a liquid chromatography-tandem mass spectrometry assay. The precision (total assay coefficients of variation) for MMV390048 during sample analysis was less than 8% at all quality control levels, including the limit of quantification, which was 0.5 ng ml^−1. The full details of the assay are included in the supplemental material.
Noncompartmental pharmacokinetic analysis was performed using Phoenix WinNonlin Pro version 6.3 (Certara L.P., St. Louis, MO, USA) for the first-in-human and the formulation optimization studies, and using R version 3.2.0 for the IBSM study. Pharmacokinetic endpoints were the peak plasma concentration (Cmax), time at which Cmax is reached (Tmax), area under the concentration-time curve from 0 h to infinity (AUC0–inf), elimination half-life (t½), apparent clearance (CL/F), and apparent volume of distribution (Vz/F).

Data set [2] in a line: Stability of stock solutions in dimethylsulfoxide. The format is physicochemical. The source says:
page 28: Determination of MMV390048 from 50 µ L human plasma by LC -MS/MS A method was validated for the quantification of MMV390048 in human plasma, and consisted of a protein precipitation extraction, followed by high performance liquid chromatography with MS/MS detection. MMV390048- d3 was used as the internal standard. Analyte mean extraction yield was approximately 106.5 % (CV% = 6.2). The extraction procedure was followed by liquid chromatographic separation using a Waters Atlantis T3 3 μm, 100 x 2.1 mm analytical column. An isocratic mobile phase containing water:acetonitrile (25:75 [v/v]) was used at a flow-rate of 300 μL/min. The retention times for MMV390048 and MMV390048- d3 were 1.16 min and 1.16 min, respectively. An AB Sciex API 4000 mass spectrometer at unit resolution in the multiple reaction monitoring mode was used to monitor the transition of the protonated precursor ions, 394.145 m/z and 397.148 m/z, to the product ions, 297.0 m/z and 297.0 m/z, for MMV390048 and the internal standard, respectively. Electro -spray ionisation was used for ion production. Accuracy and precision were assessed over three consecutive, independent runs. The calibration curve fits a quadratic (weighted by 1/x) regressions for MMV390048 over the ranges 0.500 –2000 ng/mL, based on peak area ratios. The assay was successfully cross- validated on a second/back- up API 4000 instrument. […]

The subject of a further data set is rats. Details: method as in not given. The settings on record: preclinical toxicology studies in rats; ref not given; cited from earlier work.
A further data set relates to P. falciparum 3D7. The data set can be described thus: Induced blood-stage malaria (IBSM) study: antimalarial activity (parasitemia by qPCR). Type of data set: in vivo, Plasmodium falciparum. The settings on record: 20 mg single dose. As for the experimental part:
as §1
Parasitemia was monitored by collecting blood samples and performing quantitative PCR (qPCR) targeting the gene encoding P. falciparum 18S rRNA ([20]). Blood samples were collected daily from day 4 until parasites were detectable; twice daily until MMV390048 dosing; before MMV390048 dosing and 2, 4, 8, 12, 16, 20, 24, 30, 36, 48, 60, and 72 h after MMV390048 dosing; twice daily until parasitemia was not detected over a 48-h period; 3 times per week until artemether-lumefantrine treatment; and then at the end of the study (day 28).
Background: Quantitative PCR measures a nucleic acid by following its amplification.

Where [3] appears, read: single oral 20 mg fasted, powder-in-bottle, n = 6, geometric mean (CV %).

By AUC(0-t) is commonly meant exposure summed from dosing to a finite time, without extrapolation to infinity. For orientation: AUC(0-inf) means the area under the concentration-time curve extrapolated to infinity. A higher AUC(0-inf) goes with high exposure. Usually Cmax stands for the highest concentration seen after dosing. The Tmax is the time at which the peak concentration occurs. In the case of `CS(=O)(=O)c1ccc(-c2cnc(N)c(-c3ccc(C(F)(F)F)nc3)c2)cc1` [MMV390048], the “total AEs reported” value in the data set with healthy subjects (18 subjects) came to 11. The “subjects with AEs” value in the data set with healthy subjects (of 18 subjects) worked out at 7. The “effective concentration to achieve 90% of the maximal kill rate (EC90)” value in the data set with P. falciparum is 0.16 µg/mL. In addition, the AUC(0-t) in data set [1] (the 4 subjects who recrudesced 2 days after treatment) is 6000 to 9000 ng·h/mL; in data set [1] (the two subjects who recrudesced 7 days after treatment), approximately 12000 ng·h/mL. For the same molecule, in data set [1] (setting [3]), the area under the curve AUC(0-inf) is 15900 ng·h/mL. In addition, the Cmax in data set [1] (setting [3]) was 106 ng/mL. Also, the Tmax in data set [1] (single oral 20 mg fasted, powder-in-bottle, n = 6, median (range)) was 2 h. Moreover, the “stock solution in dimethylsulfoxide stable for” value in data set [2] (room temperature, 4°C and -20°C) turned out to be 24 h; in data set [2] (stored at -80°C), 1610 h. Besides, the testicular toxicity result with rats is listed as “testicular toxicity was observed”. Moreover, the results for the “time to recrudescence after MMV390048 dosing” value with P. falciparum 3D7 (n = 2 subjects (highest exposure)) and in the data set on P. falciparum 3D7 (n = 4 subjects) were 7 days and 2 days, respectively. In addition, the parasitemia following administration entry with P. falciparum 3D7 (n = 6) is given as “decreased initially in all subjects”. For the same molecule, the recrudescence result with P. falciparum 3D7 (n = 6) is recorded as “observed in all subjects”.
